For 33 compounds, RP-LC retention time results are on record in the METLIN SMRT retention time set (Domingo-Almenara et al. 2019).

A short description of this series: gradient 5% acetonitrile 3 min, to 50% in 2 min, to 85% in 15 min, held 3 min, 100 µL/min. The following applies: column: Zorbax Extend-C18 2.1 x 50 mm; eluents: water / acetonitrile, 0.1% formic acid. Put shortly: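 Over 3 months, pure standards in mixtures of ~100 molecules were run by HPLC coupled to a quadrupole time-of-flight mass spectrometer in positive and negative ionization mode. The column was a Zorbax Extend-C18 (2.1 × 50 mm, 1.8 μm) at 100 μL/min, eluted with water and acetonitrile each holding 0.1% formic acid, with 40 μL dead and 900 μL dwell volumes. Retention time was determined from adduct peaks chosen by software and checked manually.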
`CCOc1ccc(C2c3[nH]c4ccccc4c3CCN2C(=O)c2ccncc2)cc1` (stereo not drawn) gave an RP-LC retention time of 948 s.

`Cc1ccc(N2CCN(S(=O)(=O)c3cc(-c4cc(C)no4)cs3)CC2)c(C)c1` gave an RP-LC retention time of 1240 s.

Compound `Cc1csc(C(=O)NCC2CCN(C(=O)COc3ccccc3)CC2)c1` registered an RP-LC retention time of 734 s.

Compound `CCOCCCNC(=O)c1nc(Nc2ccc(CC)cc2)c2ccccc2n1` displayed an RP-LC retention time of 813 s.

In the case of `CN(CC1(C)CCOCC1)S(=O)(=O)c1ccc(C(F)(F)F)cc1`, the RP-LC retention time was found to be 997 s.

In turn, `O=c1c2sccc2n(Cc2nc(-c3ccc(Br)cc3)no2)c(=O)n1Cc1ccccc1` yielded an RP-LC retention time of 1200 s.

`COc1ccc(NC(=O)CSc2nccc(N3CCN(c4cccc(OC)c4)CC3)n2)cc1` yielded an RP-LC retention time of 735 s.

On to `CCc1nnc2nc(N3CCN(C(=O)c4ccc(Br)cc4)CC3)cc(C)n12`, for which the RP-LC retention time is 638 s.

In turn, `O=C(Nc1nnc(C2CC(=O)N(c3ccc(F)cc3)C2)o1)c1ccccc1F` (stereo not drawn) showed an RP-LC retention time of 701 s.

Consider `CCOC(=O)c1nnc2c(-c3ccccc3)cnn2c1C`, for which the RP-LC retention time is 961 s.

Take `O=C(c1ccc2c(=O)n3c(nc2c1)CCCC3)N1CCC(Cc2ccccc2)CC1`: the RP-LC retention time worked out at 878 s.

Compound `COC1CCC12CCN(S(=O)(=O)c1ccc(C)c(Cl)c1)CC2` (stereo not drawn) came in with an RP-LC retention time of 1160 s.

In turn, `Cc1noc(C)c1CN1CCC(NC(=O)c2ccc3c(c2)OCO3)CC1` came in with an RP-LC retention time of 590 s.

`COCCNC(=O)Cc1ccc(NS(=O)(=O)c2ccccc2Cl)cc1` had an RP-LC retention time of 676 s.

For the compound `O=C(Cc1nnc(-c2cccc(F)c2)o1)N1CCOCC1`, the RP-LC retention time amounted to 651 s.

For the compound `Cc1ccc(-c2ccc(-n3nc(C)c(S(=O)(=O)N4CCCCC4)c3C)nn2)cc1`, the RP-LC retention time is 1190 s.

The compound `Cn1cc2c3c(cccc31)CN(C(=O)c1cc(F)ccc1Cl)CC2` returned an RP-LC retention time of 938 s.

Compound `Cc1cccc2c(=O)n(C3CCN(C(=O)Nc4ccc(F)cc4F)CC3)cnc12` displayed an RP-LC retention time of 770 s.

`CCc1nc(-c2cc(S(=O)(=O)NCC(=O)N3CCCC3)c(C)s2)no1` gave an RP-LC retention time of 787 s.

Turning to `CCCn1cc(CCNC(=O)c2ccc(Cl)cc2)c2cccnc21`, the RP-LC retention time turned out to be 821 s.

`O=C(CN1CCN(C(=O)Nc2ccc(Cl)cc2)CC1=O)NC1CCCC1` registered an RP-LC retention time of 690 s.

`N#Cc1cccc(NC(=O)C2CCN(S(=O)(=O)c3cc(C(=O)N4CCOCC4)cs3)CC2)c1` came in with an RP-LC retention time of 748 s.

In the case of `Cn1c(=O)n(C2CCN(C(=O)Cc3ccsc3)CC2)c2ncncc21`, the RP-LC retention time was determined as 630 s.

As to `Cc1cccc(NC(=O)Cn2nc(C(=O)N3CCCC3)c3ccccc32)c1`, the RP-LC retention time stood at 842 s.

`Cc1ccccc1CNC(=O)C1(C)CCCN(C(=O)Nc2ccccc2)C1` (stereo not drawn) had an RP-LC retention time of 898 s.

The compound `Cc1ccc(-c2noc(C3CC(=O)N(c4ccc5c(c4)OCO5)C3)n2)cc1` (stereo not drawn) showed an RP-LC retention time of 955 s.

On to `O=C(Cc1nnc(-c2cccc(F)c2)o1)N1CCC2(CC1)OCCO2`, for which the RP-LC retention time was determined as 698 s.

Compound `CC(NC(=O)C1CCN(C(=O)N2CCOc3ccc(Cl)cc32)CC1)c1ccccc1` (stereo not drawn) displayed an RP-LC retention time of 906 s.

Compound `COc1ccc(-n2c(=O)n(C)c(=O)c3cc(C(=O)NCc4ccco4)cnc32)cc1` registered an RP-LC retention time of 764 s.

Regarding `Cc1nc(Nc2ncc(C(=O)Nc3c(C)cccc3Cl)s2)cc(N2CCN(CCO)CC2)n1`, the RP-LC retention time is 682 s.

In turn, `COc1cc(OC)cc(-c2nnc(Cc3nc(-c4ccc(F)cc4)no3)o2)c1` gave an RP-LC retention time of 1040 s.

For the compound `Cc1cc(Cl)ccc1OCC(=O)Nc1ccc2c(c1)Sc1ncccc1C(=O)N2C`, the RP-LC retention time turned out to be 911 s.

For the compound `O=C(NCc1ccc(Cl)cc1)c1cc2sccc2n1Cc1ccc(F)cc1`, the RP-LC retention time came out at 1170 s.
